Experimental data published in US10577378B2, “EIF4A-inhibiting compounds and methods related thereto” (eFFECTOR Therapeutics, Inc., priority 2015, dated 2020).

Test system: MDA-MB-231 human breast cancer cells
Experiment: Cell proliferation assay (CellTiter-Glo, 72 hours treatment)
Type: cell-based
Details: Homo sapiens; MDA-MB-231 cells, 72 hours at 37° C., CellTiter-Glo; read-out: MDA-MB-231 cell proliferation assay (IC50)
Outline: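 IC50 categories: under 100 nM +++, 100–1000 nM ++, above 1000 nM +, derived by sigmoidal curve fitting of CellTiter-Glo luminescence. Cells plated at 2,500 per well, dosed the following day and exposed 72 h at 37 °C versus DMSO control.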

SMILES | IC50 [nM]
COc1cncc2c1[C@]1(O)[C@@H]3OC(=O)C[C@@H]3[C@@H](c3ccccc3)[C@]1(c1ccc(Br)cc1)O2 (racemic) [275F, Rac-(3aR,4S,4aR,9bS,9cR)-4a-(4-bromophenyl)-9b-hydroxy-9-methoxy-4-phenyl-3,3a,4,4a,9b,9c-hexahydro-2H-furo[3″,2″:4′,5′]cyclopenta[1′,2′:4,5]furo[2,3-c]pyridin-2-one] | < 100
COc1cncc2c1[C@]1(O)[C@@H](CN)[C@H](CO)[C@@H](c3ccccc3)[C@]1(c1ccc(Br)cc1)O2 (racemic) [170F, Rac-(4bR,5R,6R,7S,7aR)-5-(aminomethyl)-7a-(4-bromophenyl)-6-(hydroxymethyl)-4-methoxy-7-phenyl-5,6,7,7a-tetrahydro-4bH-cyclopenta[4,5]furo[2,3-c]pyridin-4b-ol] | < 100
COc1cncc2c1[C@]1(O)[C@@H](CO)C[C@@H](c3ccccc3)[C@]1(c1ccc(CN)cc1)O2 (racemic) [234F, rac-(4bR,5R,7S,7aR)-7a-(4-(aminomethyl)phenyl)-5-(hydroxymethyl)-4-methoxy-7-phenyl-5,6,7,7a-tetrahydro-4bH-cyclopenta[4,5]furo[2,3-c]pyridin-4b-ol] | > 1000
COc1cncc2c1[C@]1(O)[C@H](O)[C@H](CN(C)CC(C)(C)O)[C@@H](c3ccccc3)[C@]1(c1ccc(C#N)cc1)O2 (single isomer, unassigned) [252F] | < 100
COc1cncc2c1[C@]1(O)[C@H](O)[C@H](CNCc3ccccc3)[C@@H](c3ccccc3)[C@]1(c1ccc(C#N)cc1)O2 (racemic) [77F, Rac-4-((4bS,5R,6S,7S,7aR)-6-((benzylamino)methyl)-4b,5-dihydroxy-4-methoxy-7-phenyl-4b,5,6,7-tetrahydro-7aH-cyclopenta[4,5]furo[2,3-c]pyridin-7a-yl)benzonitrile] | < 100
COc1cncc2c1[C@]1(O)[C@H](O)[C@H](CN3CC(F)(F)C3)[C@@H](c3ccccc3)[C@]1(c1ccc(C#N)cc1)O2 (single isomer, unassigned) [122F] | 100 to 1000
Cc1ccc([C@@]23Oc4cc(Cl)cnc4[C@]2(O)[C@H](O)[C@H](C(=O)N(C)C)[C@H]3c2ccccc2)cc1 (single isomer, unassigned) [7F] | 100 to 1000
COc1cncc2c1[C@]1(O)[C@H](O)[C@H](CNCCO)[C@@H](c3ccccc3)[C@]1(c1ccc(C#N)cc1)O2 (racemic) [79F, Rac-4-((4bS,5R,6S,7S,7aR)-4b,5-dihydroxy-6-(((2-hydroxyethyl)amino)methyl)-4-methoxy-7-phenyl-5,6,7,7a-tetrahydro-4bH-cyclopenta[4,5]furo[2,3-c]pyridin-7a-yl)benzonitrile] | > 1000
COc1cncc2c1[C@]1(O)[C@H](O)[C@H](C(=O)NC3CC3)[C@@H](c3ccccc3)[C@]1(c1ccc(Br)cc1)O2 (racemic) [89F, Rac-(4bS,5R,6R,7S,7aR)-7a-(4-bromophenyl)-N-cyclopropyl-4b,5-dihydroxy-4-methoxy-7-phenyl-4b,6,7,7a-tetrahydro-5H-cyclopenta[4,5]furo[2,3-c]pyridine-6-carboxamide] | < 100
COc1nc(Cl)cc2c1[C@]1(O)[C@H](O)[C@H](CN3CCC(F)(F)CC3)[C@@H](c3ccccc3)[C@]1(c1ccc(C#N)cc1)O2 (racemic) [157Fb, Rac-4-((5aR,6S,7S,8R,8aS)-3-chloro-7-((4,4-difluoropiperidin-1-yl)methyl)-8,8a-dihydroxy-1-methoxy-6-phenyl-6,7,8,8a-tetrahydro-5aH-cyclopenta[4,5]furo[3,2-c]pyridin-5a-yl)benzonitrile] | 100 to 1000
OC[C@H]1[C@@H](O)[C@@]2(O)c3ncc(Cl)cc3O[C@@]2(c2ccc(Br)cc2)[C@@H]1c1ccccc1 (racemic) [55F, Rac-(5aR,6S,7S,8R,8aS)-5a-(4-bromophenyl)-3-chloro-7-(hydroxymethyl)-6-phenyl-5a,6,7,8-tetrahydro-8aH-cyclopenta[4,5]furo[3,2-b]pyridine-8,8a-diol] | 100 to 1000
COc1cncc2c1[C@]1(O)[C@H](O)[C@H](C(=O)N(C)C)[C@@H](c3ccccc3)[C@]1(c1ccc(Cl)cc1)O2 (racemic) [271F, rac-(4bS,5R,6R,7S,7aR)-7a-(4-chlorophenyl)-4b,5-dihydroxy-4-methoxy-N,N-dimethyl-7-phenyl-4b,6,7,7a-tetrahydro-5H-cyclopenta[4,5]furo[2,3-c]pyridine-6-carboxamide] | 100 to 1000
COC(=O)[C@@H]1[C@@H](c2ccccc2)[C@]2(c3ccc(Br)cc3)Oc3cc(Cl)cnc3[C@@]23O[C@@H]13 (racemic) [161F, Rac-methyl (1aS,2R,3S,3aR,8bS)-3a-(4-bromophenyl)-6-chloro-3-phenyl-1a,2,3,3a-tetrahydro-oxireno[2″,3″:1′,5′]cyclopenta[1′,2′:4,5]furo[3,2-b]pyridine-2-carboxylate] | > 1000
O[C@@H]1[C@H](Sc2ccccn2)[C@@H](c2ccccc2)[C@]2(c3ccc(Br)cc3)Oc3cc(Cl)cnc3[C@]12O (racemic) [160Fa, Rac-(5aR,6S,7R,8S,8aS)-5a-(4-bromophenyl)-3-chloro-6-phenyl-7-(pyridin-2-ylthio)-5a,6,7,8-tetrahydro-8aH-cyclopenta[4,5]furo[3,2-b]pyridine-8,8a-diol] | 100 to 1000
COC(=O)[C@@H]1[C@@H](c2ccccc2)[C@]2(c3ccc(C#N)cc3)Oc3cc(Cl)cnc3[C@]2(O)[C@H]1C#N (racemic) [50F, Rac-methyl (5aR,6S,7R,8R,8aR)-3-chloro-8-cyano-5a-(4-cyanophenyl)-8a-hydroxy-6-phenyl-5a,7,8,8a-tetrahydro-6H-cyclopenta[4,5]furo[3,2-b]pyridine-7-carboxylate] | 100 to 1000
COc1cncc2c1[C@]1(O)[C@@H](CN(C)C)[C@H](CO)[C@@H](c3ccccc3)[C@]1(c1ccc(C#N)cc1)O2 (racemic) [206F, Rac-4-((4bR,5R,6R,7S,7aR)-5-((dimethylamino)methyl)-4b-hydroxy-6-(hydroxymethyl)-4-methoxy-7-phenyl-4b,5,6,7-tetrahydro-7aH-cyclopenta[4,5]furo[2,3-c]pyridin-7a-yl)benzonitrile] | < 100
COc1nccc2c1[C@]1(O)[C@H](O)[C@H](CN(C)C)[C@@H](c3ccccc3)[C@]1(c1ccc(C(F)F)cc1)O2 (racemic) [148F, Rac-(5aR,6S,7S,8R,8aS)-5a-(4-(difluoromethyl)phenyl)-7-((dimethylamino)methyl)-1-methoxy-6-phenyl-5a,6,7,8-tetrahydro-8aH-cyclopenta[4,5]furo[3,2-c]pyridine-8,8a-diol] | > 1000
CN(C)C(=O)[C@H]1[C@@H](O)[C@@]2(O)c3cnc(C#N)cc3O[C@@]2(c2ccc(C#N)cc2)[C@@H]1c1ccccc1 (racemic) [14F, rac-(5aR,6S,7R,8R,8aS)-3-cyano-5a-(4-cyanophenyl)-8,8a-dihydroxy-N,N-dimethyl-6-phenyl-5a,7,8,8a-tetrahydro-6H-cyclopenta[4,5]furo[3,2-c]pyridine-7-carboxamide] | 100 to 1000
C[C@H]1[C@@H](O)[C@@]2(O)c3ncc(Cl)cc3O[C@@]2(c2ccc(Br)cc2)[C@@H]1c1ccccc1 (racemic) [57F, Rac-(5aR,6S,7R,8R,8aS)-5a-(4-bromophenyl)-3-chloro-7-methyl-6-phenyl-5a,6,7,8-tetrahydro-8aH-cyclopenta[4,5]furo[3,2-b]pyridine-8,8a-diol] | > 1000

Same assay, conditions: MDA-MB-231 cells, 72 hours at 37° C., CellTiter-Glo; read-out: MDA-MB-231 cell proliferation assay (IC50)

SMILES | IC50 [nM]
CN(C)C[C@H]1[C@@H](O)[C@@]2(O)c3ncc(C#N)cc3O[C@@]2(c2ccc(C#N)cc2)[C@@H]1c1ccccc1 [105F] | > 1000
